Values joined by “and” are separate entries in the source; they are usually repeats but may differ in a detail not shown here. Equal values may be shown once. Read-outs that look alike come from different tables or passages of the source.
System: SRS-A-mediated bronchoconstriction after ovalbumin (OVA) challenge in guinea pigs
Assay: SRS-A-mediated (OVA-induced) bronchoconstriction in anaesthetized, mechanically ventilated sensitized guinea pigs
Assay type: in vivo, guinea pig
Conditions: Cavia porcellus
Experimental: Male Dunkin Hartley guinea pigs; body weight 200-250 g at sensitization and 350-500 g when performing the experiments. Ovalbumin (OVA) was used as allergen for active sensitization. Therefore, 20 μg OVA together with 20 mg Al(OH)3 suspended in 0.5 ml 0.9% NaCl-solution (=saline) were administered i.p. to each animal on 2 consecutive days. […] Controls received the drug-free methocel-solution 1 h before OVA-challenge as placebo (n=12). OVA-challenge and lung function measurements were performed in anaesthetized and mechanically ventilated animals. […] To enhance the SRS-A-mediated bronchoconstriction, the animals were pretreated with: indomethacin 10 mg/kg i.v. 20 min before OVA-challenge to block the cyclooxygenase pathway and to enhance the production of lipoxygenase-mediators, mainly leukotrienes. […] The time-effect curve for the delta-%-decrease of compliance and conductance was determined up to 12 min post challenge. Blood pressure and heart rate were monitored to control vitality. The area under the time-delta-%-decrease curves (AUC) was determined for each animal. On basis of the AUC-values, the inhibition of the SRS-A-induced decrease of compliance and conductance was calculated in reference to placebo. […] Measured and calculated ED50-values were compared by an unpaired t-test for statistical significant differences.

For `O=C(Nc1c(Cl)cncc1Cl)c1ccc(OC(F)F)c(OCC2CC2)c1` [ROFLUMILAST, 3-cyclopropylmethoxy-4-difluoromethoxy-N-(3,5-dichloropyrid-4-yl)-benzamide], which ED50 (read-out: ED50, inhibition of decrease of airway compliance) is on record?
Its ED50 is 0.58 mg/kg and 1.45 µmol/kg.

What about the ED50 (read-out: ED50, inhibition of decrease of airway conductance) of the same molecule?
The ED50 was 0.69 mg/kg and 1.73 µmol/kg.

Source: patent US20050014762A1, “Combination” (priority 2001, published 2005)
